For the test, the system named is BDF1 mice, P388 leukemia ip, median survival T/C. Briefly: NCI In Vivo Anticancer Drug Screen. Data for tumor model P388 Leukemia (intraperitoneal) in B6D2F1 (BDF1) mice. To be noted: endpoint: median survival time, higher = longer survival. In short, it runs like this:
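Mice carrying the transplantable tumour receive compound or vehicle. Survival is followed in each arm, and the treated measure is divided by the vehicle measure.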

The mark [1] stands for this setting: dose: 100.0 mg/kg/injection, schedule: Q01DX009 (ip), vehicle: saline.
Setting [2] is: dose: 100.0 mg/kg/injection, schedule: Q04DX003 (ip), vehicle: saline.
[3] abbreviates: dose: 200.0 mg/kg/injection, schedule: Q04DX003 (ip), vehicle: saline.
The mark [4] stands for this setting: dose: 50.0 mg/kg/injection, schedule: Q04DX003 (ip), vehicle: Klucel (hydroxypropylcellulose) (HPC).
[5] abbreviates: dose: 100.0 mg/kg/injection, schedule: Q04DX003 (ip), vehicle: Klucel (hydroxypropylcellulose) (HPC).
[6] abbreviates: dose: 200.0 mg/kg/injection, schedule: Q04DX003 (ip), vehicle: Klucel (hydroxypropylcellulose) (HPC).
Setting [7] is: dose: 100.0 mg/kg/injection, schedule: Q04DX003 (ip), vehicle: saline with Tween-80.
Where [8] appears, read: dose: 200.0 mg/kg/injection, schedule: Q04DX003 (ip), vehicle: saline with Tween-80.
Where [9] appears, read: dose: 400.0 mg/kg/injection, schedule: Q04DX003 (ip), vehicle: saline with Tween-80.
Where [10] appears, read: dose: 50.0 mg/kg/injection, schedule: Q01DX009 (ip), vehicle: saline with Tween-80.
[11] abbreviates: dose: 100.0 mg/kg/injection, schedule: Q01DX009 (ip), vehicle: saline with Tween-80.
[12] abbreviates: dose: 200.0 mg/kg/injection, schedule: Q01DX009 (ip), vehicle: saline with Tween-80.
Setting [13] is: dose: 50.0 mg/kg/injection, schedule: Q01DX009 (ip), vehicle: Klucel (hydroxypropylcellulose) (HPC).
The mark [14] stands for this setting: dose: 100.0 mg/kg/injection, schedule: Q01DX009 (ip), vehicle: Klucel (hydroxypropylcellulose) (HPC).
[15] abbreviates: dose: 400.0 mg/kg/injection, schedule: Q04DX003 (ip), vehicle: saline.
The mark [16] stands for this setting: dose: 25.0 mg/kg/injection, schedule: Q01DX009 (ip), vehicle: saline with Tween-80.

Values joined by “and” are separate entries in the source; they are usually repeats but may differ in a detail not shown here. Equal entries are not always repeated. Inconclusive results and toxic doses are left out.

`O=NN(CCF)C(=O)NCCF`: the T/C is, setting by setting: (dose: 0.25 mg/kg/injection, schedule: Q01DX009 (ip), vehicle: saline) 120 % of control; (dose: 0.5 mg/kg/injection, schedule: Q04DX003 (ip), vehicle: saline) 120 % of control; (dose: 1.0 mg/kg/injection, schedule: Q01DX009 (ip), vehicle: saline) 150 % of control and 172 % of control; (dose: 1.0 mg/kg/injection, schedule: Q04DX003 (ip), vehicle: saline) 104 % of control; (dose: 2.0 mg/kg/injection, schedule: Q01DX009 (ip), vehicle: saline) 268 % of control; (dose: 2.0 mg/kg/injection, schedule: Q04DX003 (ip), vehicle: saline) 175 % of control. In addition, the T/C is 165 % of control (dose: 3.3 mg/kg/injection, schedule: Q04DX003 (ip), vehicle: saline); 235 % of control (dose: 5.0 mg/kg/injection, schedule: Q04DX003 (ip), vehicle: saline); 95 % of control (dose: 7.5 mg/kg/injection, schedule: Q04DX003 (ip), vehicle: saline); 300 % of control (dose: 10.0 mg/kg/injection, schedule: Q04DX003 (ip), vehicle: saline); 110 % of control (dose: 20.0 mg/kg/injection, schedule: Q04DX003 (ip), vehicle: saline).

`CCOCCOCCOCCCNCCCN1CC1`: the T/C runs as follows: (dose: 50.0 mg/kg/injection, schedule: Q01DX009 (ip), vehicle: saline) 187 % of control; under setting [1], 95 % of control; under setting [2], 177 % of control; under setting [3], 190 % of control.

Take `O=C(COc1ccc(Cl)cc1)C1CSc2ccc3ccccc3c21` (configuration not stated): the T/C reads like this: (dose: 100.0 mg/kg/injection, schedule: Q04DX003 (ip), vehicle: saline sonified) 95 % of control; (dose: 200.0 mg/kg/injection, schedule: Q04DX003 (ip), vehicle: saline sonified) 90 % of control; (dose: 400.0 mg/kg/injection, schedule: Q04DX003 (ip), vehicle: saline sonified) 95 % of control.

Consider `CN(C)c1ccc(C(C#N)(c2ccc(N(C)C)cc2)c2ccc(N(C)C)cc2)cc1`, for which the T/C under setting [4] is 100 % of control, the T/C under setting [5] is 100 % of control and the T/C under setting [6] was 95 % of control.

As to `Cc1ccc(NC(=O)c2ccccc2C(=O)O)cc1C`, the T/C is, setting by setting: under setting [7], 118 % of control; under setting [8], 100 % of control; under setting [9], 118 % of control.

As for `S=C(NCCCN1CCOCC1)NN=C1c2ccccc2-c2ccccc21`, the T/C is, setting by setting: under setting [10], 97 % of control; under setting [11], 91 % of control; under setting [12], 97 % of control.

Regarding `C/C(=N\NC(N)=O)c1ccc(Cl)cc1`, the T/C is, setting by setting: under setting [13], 94 % of control; under setting [14], 108 % of control.

With `CC(=O)Nc1cc(C)no1`, the T/C is, setting by setting: under setting [1], 90 % of control; under setting [2], 109 % of control; (dose: 200.0 mg/kg/injection, schedule: Q01DX009 (ip), vehicle: saline) 95 % of control; under setting [3], 109 % of control; (dose: 400.0 mg/kg/injection, schedule: Q01DX009 (ip), vehicle: saline) 100 % of control; under setting [15], 104 % of control.

Turning to `CCOC(=O)C(=CN1CCOCC1)C(=O)OCC`, the T/C under setting [7] is 100 % of control, the T/C under setting [8] is 100 % of control and the T/C under setting [9] is 109 % of control.

Turning to `O=C([O][Hg][CH2]C1COC([CH2][Hg][O]C(=O)c2ccccc2)CO1)c1ccccc1` (configuration not stated), the T/C under setting [7] is 113 % of control.

Consider `CC(C)c1cc(C(C)C)n2nc(N)nc2n1`, for which the T/C was 100 % of control under setting [11]; 95 % of control under setting [12]; 90 % of control (dose: 400.0 mg/kg/injection, schedule: Q01DX009 (ip), vehicle: saline with Tween-80).

With `CC1CCCC(C)(CO)O1` (configuration not stated), the T/C reads like this: under setting [2], 115 % of control; under setting [3], 115 % of control; under setting [15], 105 % of control.

As for `CC(=O)[O][Hg][c]1cc[c]([Hg][O]C(C)=O)s1`, the T/C runs as follows: (dose: 3.0 mg/kg/injection, schedule: Q01DX009 (ip), vehicle: Klucel (hydroxypropylcellulose) (HPC)) 100 % of control; (dose: 3.0 mg/kg/injection, schedule: Q04DX003 (ip), vehicle: Klucel (hydroxypropylcellulose) (HPC)) 91 % of control; (dose: 6.0 mg/kg/injection, schedule: Q01DX009 (ip), vehicle: Klucel (hydroxypropylcellulose) (HPC)) 100 % of control; (dose: 6.0 mg/kg/injection, schedule: Q04DX003 (ip), vehicle: Klucel (hydroxypropylcellulose) (HPC)) 100 % of control; (dose: 12.0 mg/kg/injection, schedule: Q01DX009 (ip), vehicle: Klucel (hydroxypropylcellulose) (HPC)) 100 % of control; (dose: 12.0 mg/kg/injection, schedule: Q04DX003 (ip), vehicle: Klucel (hydroxypropylcellulose) (HPC)) 100 % of control.

In the case of `Nc1nc(SN=Nc2ccc(S(=O)(=O)O)cc2)c2[nH]cnc2n1`, the T/C is, setting by setting: (dose: 4.0 mg/kg/injection, schedule: Q01DX009 (ip), vehicle: Klucel (hydroxypropylcellulose) (HPC)) 113 % of control; (dose: 9.0 mg/kg/injection, schedule: Q01DX009 (ip), vehicle: Klucel (hydroxypropylcellulose) (HPC)) 121 % of control; (dose: 20.0 mg/kg/injection, schedule: Q04DX003 (ip), vehicle: Klucel (hydroxypropylcellulose) (HPC)) 108 % of control; (dose: 30.0 mg/kg/injection, schedule: Q04DX003 (ip), vehicle: Klucel (hydroxypropylcellulose) (HPC)) 120 % of control; (dose: 45.0 mg/kg/injection, schedule: Q04DX003 (ip), vehicle: Klucel (hydroxypropylcellulose) (HPC)) 112 % of control; (dose: 66.0 mg/kg/injection, schedule: Q04DX003 (ip), vehicle: saline) 122 % of control. Further, the T/C reads like this: under setting [2], 118 % of control; (dose: 150.0 mg/kg/injection, schedule: Q04DX003 (ip), vehicle: Klucel (hydroxypropylcellulose) (HPC)) 115 % of control; (dose: 150.0 mg/kg/injection, schedule: Q04DX003 (ip), vehicle: saline) 113 % of control; under setting [6], 116 % of control.

Turning to `O=C(O)CCS(=O)(=O)CCC(=O)O`, the T/C under setting [10] is 100 % of control, the T/C under setting [11] is 100 % of control and the T/C under setting [12] is 100 % of control.

Take `CCOC(=O)N(C)c1ccccc1`: the T/C is, setting by setting: (dose: 25.0 mg/kg/injection, schedule: Q01DX009 (ip), vehicle: Klucel (hydroxypropylcellulose) (HPC)) 95 % of control; (dose: 25.0 mg/kg/injection, schedule: Q04DX003 (ip), vehicle: Klucel (hydroxypropylcellulose) (HPC)) 92 % of control; under setting [13], 91 % of control; under setting [4], 96 % of control; under setting [14], 87 % of control; under setting [5], 92 % of control.

On to `COn1nnc2c(Cl)c(Cl)ccc21`, for which the T/C is, setting by setting: under setting [7], 95 % of control; under setting [8], 92 % of control; under setting [9], 100 % of control.

Take `CC(=O)CC(=O)Nc1ccc(N=Nc2ccccc2)cc1`: the T/C by setting is: under setting [7], 109 % of control; under setting [8], 109 % of control; under setting [9], 119 % of control.

As to `O=C/C=C/c1ccc([N+](=O)[O-])cc1`, the T/C runs as follows: under setting [16], 104 % of control; under setting [10], 108 % of control; under setting [11], 91 % of control.

Take `Cc1nc(C)c(Br)s1`: the T/C is 100 % of control under setting [16], 100 % of control under setting [10] and 107 % of control under setting [11].

The values above are taken from PubChem BioAssay AID328 (DTP/NCI, 2004).
